The text below walks through data of patent US7972815B2, “Method of producing sugar chain using human G4 polypeptide” (Kyowa Hakko Kirin Co., Ltd., priority 1999, dated 2011).

Holding throughout (type): biochemical
The target in test [1] is T1, β1,3-N-acetylglucosaminyl transferase (G7) (Homo sapiens, UniProt Q9C0J1).
T1 construct: made in house; host or cells: Sf21 insect cells infected with recombinant baculovirus from pVL1393-F2G7
The test can be described thus: Substrate specificity of G7 with pyridylaminated oligosaccharides. As to conditions: 16 hours; for Relative activity (%): pyridylaminated substrate, 37° C., activity for LNnT defined as 100%. Here is the method: (§1) The method shown in Example 8 was used as the activity measuring method. Specifically, after the reaction at 37° C. for 14.5 hours in 30 μl of an assay solution [200 mmol/l of MOPS (pH 7.5), 20 mmol/l of UDP-GlcNAc (SIGMA), 20 mmol/l of MnCl2, 50 μmol/l of pyridylaminated sugar chain substrate and 15 μl of the above eluate], products were detected by HPLC. As substrates, LNnT, lacto-N-tetraose (Galβ1-3GlcNAcβ1-3Galβ1-4Glc, hereinafter referred to as “LNT”), lacto-N-fucopentaose II (Galβ1-3(Fucα1-4)GlcNAcβ1-3Galβ1-4Glc, hereinafter referred to as “LNFP-II”), lacto-N-fucopentaose III (Galβ1-4(Fucα1-3)GlcNAcβ1-3Galβ1-4Glc, hereinafter referred to as “LNFP-III”), lacto-N-fucopentaose V (Galβ1-3GlcNAcβ1-3Galβ1-4(Fucα1-3)Glc, hereinafter referred to as “LNFP-V”) and lacto-N-difucohexaose II (Galβ1-3(Fucα1-4)GlcNAcβ1-3Galβ1-4(Fucα1-3)Glc, hereinafter referred to as “LNDFH-II”) (all manufactured by Oxford Glycosystems) were used after fluorescently labeling them with aminopyridine. Fluorescence labeling of these substrates were carried out in accordance with the usual method [Agric. Biol. Chem., 54, 2169 (1990)].
(§2) For each substrate, the reaction was carried using the assay solution with or without UDP-GlcNAc (sugar donor), and then HPLC was carried out and peaks appeared only in the assay solution containing UDP-GlcNAc were defined as products.
(§3) The assay solution after completion of the reaction was treated at 100° C. for 5 minutes and then centrifuged at 10,000×g for 5 minutes, and a portion (5 μl) of the thus obtained supernatant was applied to HPLC.
(§4) The HPLC was carried out by using TSK-gel ODS-80Ts column (4.6×300 mm; Tosoh); 0.02 mol/l ammonium acetate buffer (pH 4.0) was used as the eluate at an elution temperature of 50° C. and at a flow rate of 0.5 ml/min.
(§5) Products were detected by using a fluorescence spectrum photometer FP-920 (JASCO Corporation) (excitation wavelength 320 nm, radiation wavelength 400 nm).
Examination of the substrate specificity of a β1,3-N-acetylglucosaminyl transferase (G7) was carried out using the FLAG peptide-fused G7 polypeptide purified in Example 17.
Substrate specificity of the FLAG peptide-fused G7 polypeptide was examined by the method shown in Example 11(1). The reaction was carried out at 37° C. for 16 hours.

Test [2] deals with T2, β1,3-N-acetylglucosaminyl transferase (G3) (Homo sapiens, UniProt Q9NY97).
T2 construct: made in house; host or cells: Sf21 insect cells infected with recombinant baculovirus from pVL1393-F2G3
T2 sequence (Q9NY97 31-397): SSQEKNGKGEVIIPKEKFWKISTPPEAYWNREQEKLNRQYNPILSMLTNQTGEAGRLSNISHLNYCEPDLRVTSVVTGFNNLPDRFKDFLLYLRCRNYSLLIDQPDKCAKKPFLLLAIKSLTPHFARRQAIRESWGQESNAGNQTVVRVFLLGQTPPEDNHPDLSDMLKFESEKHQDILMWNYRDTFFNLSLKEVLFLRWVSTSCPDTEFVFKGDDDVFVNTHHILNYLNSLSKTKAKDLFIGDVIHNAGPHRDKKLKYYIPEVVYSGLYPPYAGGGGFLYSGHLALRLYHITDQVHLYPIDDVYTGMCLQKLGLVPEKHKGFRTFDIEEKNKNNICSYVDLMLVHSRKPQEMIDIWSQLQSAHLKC
As to the kind of experiment: Substrate specificity of G3 with unlabeled oligosaccharides. The settings on record: 2 hours; for Relative activity (%) G3: unlabeled substrate, 37° C., activity for LNnT defined as 100%. Here is the method: The reaction using the glycosyltransferase was carried out as follows. The reaction was carried out at 37° C. for 16 hours in 40 μl of an assay solution [50 mmol/l MOPS (pH 7.5), 5 mmol/l UDP-GlcNAc (SIGMA), 5 mmol/l MnCl2, […] and 10 μl of the above eluate]. Next, the reaction solution was treated at 100° C. for 5 minutes and then centrifuged at 10,000×g for 20 minutes to obtain the supernatant, and a portion thereof was analyzed using HPAE/PAD (High Performance Anion Pulsed Amperometoric Detection; manufactured by DIONEX). The specific method was carried out in the usual way [Anal. Biochem., 189, 151 (1990), J. Biol. Chem., 273, 433 (1998)].
As substrates, the following unlabeled oligosaccharides were used: lactose (Galβ1-4Glc), N-acetyllactosamine (Galβ1-4GlcNAc, hereinafter referred to as “LacNAc” in some cases), LNnT, LNT and lacto-N-neohexaose (Galβ1-4GlcNACβ1-3Galβ1-4GlcNAcβ1-3Galβ1-4Glc, hereinafter referred to as “LNnH”).
as §2
In identifying the product, coincidence of its elution time with that of a standard sugar chain was used as the index. As the standard sugar chains, GlcNAcβ1-3Galβ1-4Glc, GlcNAcβ1-3Galβ1-4GlcNAc and GlcNAcβ1-3Galβ1-4GlcNAcβ1-3Galβ1-4Glc were used.
Substrate specificity of the FLAG peptide-fused G3 polypeptide was examined by the method shown in Example 11(2). The enzyme reaction was carried out at 37° C. for 2 hours.

Test [3] deals with T3, β1,3-N-acetylglucosaminyl transferase (G4) (Homo sapiens, UniProt Q9Y2A9, R328H).
T3 construct: made in house; host or cells: Sf21 insect cells infected with recombinant baculovirus from pVL1393-F2G4
T3 sequence (Q9Y2A9 38-372 R328H): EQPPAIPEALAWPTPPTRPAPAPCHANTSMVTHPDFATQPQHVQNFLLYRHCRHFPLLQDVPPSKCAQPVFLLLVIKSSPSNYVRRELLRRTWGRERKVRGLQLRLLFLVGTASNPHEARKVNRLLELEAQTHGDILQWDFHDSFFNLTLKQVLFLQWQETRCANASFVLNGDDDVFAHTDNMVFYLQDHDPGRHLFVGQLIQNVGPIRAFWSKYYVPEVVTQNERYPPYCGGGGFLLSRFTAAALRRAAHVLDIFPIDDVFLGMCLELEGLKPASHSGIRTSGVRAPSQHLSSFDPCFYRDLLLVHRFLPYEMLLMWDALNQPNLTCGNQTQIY
As to the kind of experiment: Substrate specificity of G4 with pyridylaminated oligosaccharides. As to conditions: for Relative activity (%): pyridylaminated substrate 50 μmol/l, 37° C., 14.5 hours, activity on LNnT defined as 100%. The protocol: Examination on the substrate specificity of a β1,3-N-acetylglucosaminyl transferase (G4) was carried out by using the FLAG peptide-fused G4 polypeptide produced as a secreted form in Example 10.
as §1, §2, §3, §4, §5

[4] abbreviates: pyridylaminated LNnT as substrate.

T1 sequence (Q9C0J1 56-378): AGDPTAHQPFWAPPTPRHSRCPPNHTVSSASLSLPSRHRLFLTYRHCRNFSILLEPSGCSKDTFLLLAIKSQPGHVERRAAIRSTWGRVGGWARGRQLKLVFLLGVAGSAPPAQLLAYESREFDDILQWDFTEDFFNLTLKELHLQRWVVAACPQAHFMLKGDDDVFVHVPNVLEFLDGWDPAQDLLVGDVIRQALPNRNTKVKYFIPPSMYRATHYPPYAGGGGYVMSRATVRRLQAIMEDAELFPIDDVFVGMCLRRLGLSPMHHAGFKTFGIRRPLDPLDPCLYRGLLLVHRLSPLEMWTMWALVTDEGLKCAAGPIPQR

As for `CC(=O)N[C@H]1[C@H](O[C@H]2[C@@H](O)[C@@H](CO)O[C@@H](O[C@H]3[C@H](O)[C@@H](O)C(O)O[C@@H]3CO)[C@@H]2O)O[C@H](CO)[C@@H](O[C@@H]2O[C@H](CO)[C@H](O)[C@H](O)[C@H]2O)[C@@H]1O` (mixture of isomers) [LNnT, lacto-N-neotetraose], the “conversion efficiency of the substrate into the product” value in test [1] (setting [4]) came to 3.76%. In addition, the “Relative activity (%)” value in test [1] and in test [3] was 100% throughout. The “conversion ratio of a substrate into the product” value in test [2] (unlabeled LNnT as substrate) came out at 4.6%. For the same molecule, the “Relative activity (%) G3” value in test [2] is 100%. For the same molecule, in test [3] (setting [4]), the “conversion ratio of the substrate into the product” value is reported as 12.9%.
With `CC(=O)N[C@H]1[C@H](O[C@H]2[C@@H](O)[C@@H](CO)O[C@@H](O[C@H]3[C@H](O)[C@@H](O)C(O)O[C@@H]3CO)[C@@H]2O)O[C@H](CO)[C@@H](O)[C@@H]1O[C@@H]1O[C@H](CO)[C@H](O)[C@H](O)[C@H]1O` (stereo partly drawn) [LNT, lacto-N-tetraose], the “Relative activity (%)” value in test [1] was determined as 7.6%; in test [3], 84.5%. The “Relative activity (%) G3” value in test [2] is listed as 27%.
